Measured values from patent US20260176265A1 (Cancer Research Technology Limited, priority 2022, published 2026).

Tests used:
[1] = molecular target: CtermHisTag-mEGFR Wild type (Homo sapiens, UniProt P00533); test: TR-FRET probe displacement assay, EGFR wild type; format: binding; settings: EGFR wild type 1.25 nM, probe 100 nM, 30 mins room temperature
Description: (§1) Compounds (dissolved to 100 mM in DMSO) were dispensed into black low volume 384 well assay plates (Corning) over a final concentration range of 100000, 30000, 10000, 3000, 1000, 300, 100, 30, 10, and 3 nM using an Echo 550 (Labcyte). Positive control compound and DMSO as a negative control were dispensed into the first and last well, respectively. […]. Plates were read using a PheraStar FS (BMG Labtech) at Ex337 nm Ex490/520 nm. The data were analysed using Graphpad Prism/Dotmatics Studies Software. Assays conducted in technical replicate and repeated as a biological duplicate.

[2] = molecular target: CtermHisTag-mEGFR Triple Mutant - C797S, L858R, T790M (Homo sapiens, UniProt P00533, C797S/L858R/T790M); test: TR-FRET probe displacement assay, EGFR triple mutant; format: binding; settings: T790M 1.25 nM, probe 100 nM, 30 mins room temperature
Chain of CtermHisTag-mEGFR Triple Mutant - C797S, L858R, T790M (P00533 25-1210 T790M/C797S/L858R): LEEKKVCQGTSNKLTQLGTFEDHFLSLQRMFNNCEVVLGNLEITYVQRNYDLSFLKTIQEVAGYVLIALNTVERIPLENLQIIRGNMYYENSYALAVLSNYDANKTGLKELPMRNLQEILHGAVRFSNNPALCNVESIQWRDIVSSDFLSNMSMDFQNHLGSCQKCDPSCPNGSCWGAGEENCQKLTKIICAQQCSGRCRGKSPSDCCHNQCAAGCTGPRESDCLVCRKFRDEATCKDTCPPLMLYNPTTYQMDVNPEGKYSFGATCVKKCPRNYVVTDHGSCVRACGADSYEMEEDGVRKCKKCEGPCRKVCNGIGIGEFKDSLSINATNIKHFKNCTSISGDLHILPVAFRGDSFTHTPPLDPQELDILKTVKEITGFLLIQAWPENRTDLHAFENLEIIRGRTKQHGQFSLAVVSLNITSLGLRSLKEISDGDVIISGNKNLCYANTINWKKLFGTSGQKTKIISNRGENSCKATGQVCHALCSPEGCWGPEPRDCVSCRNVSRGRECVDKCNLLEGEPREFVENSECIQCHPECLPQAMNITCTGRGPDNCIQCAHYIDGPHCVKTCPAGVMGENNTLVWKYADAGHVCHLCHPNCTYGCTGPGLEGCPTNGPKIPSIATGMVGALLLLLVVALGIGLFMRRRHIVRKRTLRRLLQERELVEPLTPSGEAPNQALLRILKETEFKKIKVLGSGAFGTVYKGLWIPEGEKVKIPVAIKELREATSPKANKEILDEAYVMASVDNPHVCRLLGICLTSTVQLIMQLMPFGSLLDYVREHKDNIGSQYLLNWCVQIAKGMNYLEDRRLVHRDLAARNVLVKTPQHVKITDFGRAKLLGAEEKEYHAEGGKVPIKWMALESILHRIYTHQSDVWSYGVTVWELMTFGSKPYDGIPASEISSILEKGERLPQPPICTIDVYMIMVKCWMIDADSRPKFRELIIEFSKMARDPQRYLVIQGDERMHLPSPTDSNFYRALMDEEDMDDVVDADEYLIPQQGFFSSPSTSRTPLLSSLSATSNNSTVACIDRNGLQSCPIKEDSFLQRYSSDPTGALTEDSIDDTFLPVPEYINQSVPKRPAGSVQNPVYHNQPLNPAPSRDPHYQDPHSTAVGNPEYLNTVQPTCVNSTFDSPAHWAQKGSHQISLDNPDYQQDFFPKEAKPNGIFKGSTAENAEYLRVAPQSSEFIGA
Description: as §1

[3] = molecular target: T1, Phospho-EGFR (Tyr1068) in H1975 cells (Homo sapiens, UniProt P00533, L858R/T790M); test: HTRF pEGFR/total EGFR assay in H1975 cells; format: cell-based; settings: compound 3 hours, ratio pEGFR/total EGFR
T1 construct: host or cells: H1975
T1 sequence (P00533 25-1210 T790M/L858R): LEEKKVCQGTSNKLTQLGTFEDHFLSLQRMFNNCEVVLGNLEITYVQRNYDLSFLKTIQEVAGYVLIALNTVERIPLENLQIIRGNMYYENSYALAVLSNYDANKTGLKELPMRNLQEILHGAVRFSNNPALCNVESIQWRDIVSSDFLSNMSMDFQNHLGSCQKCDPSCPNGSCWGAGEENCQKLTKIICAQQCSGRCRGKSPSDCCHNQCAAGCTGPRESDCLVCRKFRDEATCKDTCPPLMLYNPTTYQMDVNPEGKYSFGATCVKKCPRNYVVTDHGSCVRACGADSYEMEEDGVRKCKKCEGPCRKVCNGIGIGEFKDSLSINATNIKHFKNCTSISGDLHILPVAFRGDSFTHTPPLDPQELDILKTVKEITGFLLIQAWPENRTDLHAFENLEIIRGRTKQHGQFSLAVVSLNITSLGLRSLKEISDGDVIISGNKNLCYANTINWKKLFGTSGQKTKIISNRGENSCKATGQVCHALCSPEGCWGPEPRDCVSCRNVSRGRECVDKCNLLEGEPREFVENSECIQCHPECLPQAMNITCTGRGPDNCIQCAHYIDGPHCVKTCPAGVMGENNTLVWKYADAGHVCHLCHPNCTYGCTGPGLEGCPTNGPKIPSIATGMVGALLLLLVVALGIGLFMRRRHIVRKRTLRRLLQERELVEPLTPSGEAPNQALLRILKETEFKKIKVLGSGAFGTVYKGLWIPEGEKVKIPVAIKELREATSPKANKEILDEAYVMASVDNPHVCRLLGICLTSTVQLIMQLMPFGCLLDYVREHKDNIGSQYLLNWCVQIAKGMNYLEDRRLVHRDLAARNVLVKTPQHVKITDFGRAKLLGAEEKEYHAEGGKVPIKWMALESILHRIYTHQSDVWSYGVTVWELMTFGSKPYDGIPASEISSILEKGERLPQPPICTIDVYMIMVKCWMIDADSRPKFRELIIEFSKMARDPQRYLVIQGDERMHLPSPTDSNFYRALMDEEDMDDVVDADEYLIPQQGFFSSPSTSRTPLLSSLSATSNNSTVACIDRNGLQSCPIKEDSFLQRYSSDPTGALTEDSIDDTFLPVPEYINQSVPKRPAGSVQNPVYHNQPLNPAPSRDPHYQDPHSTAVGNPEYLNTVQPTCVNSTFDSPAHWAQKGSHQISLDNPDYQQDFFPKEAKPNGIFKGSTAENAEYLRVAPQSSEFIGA
Description: H1975 cells (ATCC CRL-5908) were plated at 20,000 cells per well in 96 well plates and placed at 37° C. 5% CO2. Once adhered (after 24h) cells were treated with compounds dissolved in DMSO at a final concentration of 0.1% DMSO in media. Compounds were diluted in media then added to cells for 3 hours in duplicate. Compound and media were removed from the cells, then 50ul of HTRF lysis buffer is added (lysis buffer was diluted from 4× stock to 1× in DI water, with 1% blocking agent also added). Cells were lysed on a plate shaker (2000 rpm) for 30 minutes at room temperature. pEGFR expression was monitored using the Cisbio Phospho-EGFR (Tyri068) cellular kit (64EG1 PEH). Total EGFR expression was monitored using the Cisbio Total EGFR cellular kit (64NG1 PEH) as per manufacturer's instructions. Fluorescence emission was read at two different wavelengths (665 nm and 620 nm) on a PheraStar. Results were calculated as ratio of pEGFR/total EGFR and then percentage of 0 uM control.

[4] = molecular target: T2, Phospho-EGFR (Tyr1068) in A431 cells (Homo sapiens, UniProt P00533); test: HTRF pEGFR/total EGFR assay in A431 cells (EGF stimulated); format: cell-based; settings: compound 2.5 hours then 100 ng/ml EGF 30 mins, ratio pEGFR/total EGFR
T2 construct: endogenous in cells; host or cells: A431
Description: Cells were plated at 20,000 cells per well in 96 well plates and placed at 37° C. 5% CO2. Once adhered (after 24h) cells were treated with compounds dissolved in DMSO at a final concentration of 0.1% DMSO in media. Compounds were diluted in media then added to cells for 2.5 hours in duplicate, 100 ng/ml EGF (ThermoFisher, PHG0311 was is added to all compound treated cells as well as a control for 30 mins. Compound and media were removed from the cells, then 50ul of HTRF lysis bufferwas added (lysis bufferwas diluted from 4× stock to 1× in DI water, with 1% blocking agent also added). Cells were lysed on a plate shaker (2000 rpm) for 30 minutes at room temperature. pEGFR expression was monitored using the Cisbio Phospho-EGFR (Tyr1068) cellular kit (64EG1PEH). Total EGFR expression was monitored using the Cisbio Total EGFR cellular kit (64NG1PEH) as per manufacturer's instructions. Fluorescence emission was read at two different wavelengths (665 nm and 620 nm) on a PheraStar. Results were calculated as ratio of pEGFR/total EGFR and then percentage of OuM control.

[5] = molecular target: T3, Phospho-EGFR (Tyr1068) in H1975 C797S cells (Homo sapiens, UniProt P00533, C797S/L858R/T790M); test: HTRF pEGFR/total EGFR assay in H1975 C797S cells; format: cell-based; settings: H1975 C797S cells (CRISPR), compound 3 hours, ratio pEGFR/total EGFR
T3 construct: endogenous in cells; host or cells: H1975 C797S (CRISPR-edited in house from ATCC CRL-5908)
T3 sequence (P00533 25-1210 T790M/C797S/L858R): as the sequence (P00533 25-1210 T790M/C797S/L858R) above
Description: H1975 C797S cells (ATCC CRL-5908) were genetically engineered by CRISPR editing of EGFR C797S in house and validated by NGS. Cells were plated at 20,000 cells per well in 96 well plates and placed at 37° C. 5% CO2. Once adhered (after 24h) cells were treated with compounds dissolved in DMSO at a final concentration of 0.1% DMSO in media. Compounds were diluted in media then added to cells for 3 hours in duplicate. Compound and media were removed from the cells, then 50 ul of HTRF lysis buffer was added (lysis buffer was diluted from 4× stock to 1× in DI water, with 1% blocking agent also added). Cells were lysed on a plate shaker (2000 rpm) for 30 minutes at room temperature. pEGFR expression was monitored using the Cisbio Phospho-EGFR (Tyr1068) cellular kit (64EG1PEH). Total EGFR expression was monitored using the Cisbio Total EGFR cellular kit (64NG1PEH) as per manufacturer's instructions. Fluorescence emission was read at two different wavelengths (665 nm and 620 nm) on a PheraStar. Results were calculated as ratio of pEGFR/total EGFR and then percentage of 0 uM control.

Chain of CtermHisTag-mEGFR Wild type (P00533 25-1210): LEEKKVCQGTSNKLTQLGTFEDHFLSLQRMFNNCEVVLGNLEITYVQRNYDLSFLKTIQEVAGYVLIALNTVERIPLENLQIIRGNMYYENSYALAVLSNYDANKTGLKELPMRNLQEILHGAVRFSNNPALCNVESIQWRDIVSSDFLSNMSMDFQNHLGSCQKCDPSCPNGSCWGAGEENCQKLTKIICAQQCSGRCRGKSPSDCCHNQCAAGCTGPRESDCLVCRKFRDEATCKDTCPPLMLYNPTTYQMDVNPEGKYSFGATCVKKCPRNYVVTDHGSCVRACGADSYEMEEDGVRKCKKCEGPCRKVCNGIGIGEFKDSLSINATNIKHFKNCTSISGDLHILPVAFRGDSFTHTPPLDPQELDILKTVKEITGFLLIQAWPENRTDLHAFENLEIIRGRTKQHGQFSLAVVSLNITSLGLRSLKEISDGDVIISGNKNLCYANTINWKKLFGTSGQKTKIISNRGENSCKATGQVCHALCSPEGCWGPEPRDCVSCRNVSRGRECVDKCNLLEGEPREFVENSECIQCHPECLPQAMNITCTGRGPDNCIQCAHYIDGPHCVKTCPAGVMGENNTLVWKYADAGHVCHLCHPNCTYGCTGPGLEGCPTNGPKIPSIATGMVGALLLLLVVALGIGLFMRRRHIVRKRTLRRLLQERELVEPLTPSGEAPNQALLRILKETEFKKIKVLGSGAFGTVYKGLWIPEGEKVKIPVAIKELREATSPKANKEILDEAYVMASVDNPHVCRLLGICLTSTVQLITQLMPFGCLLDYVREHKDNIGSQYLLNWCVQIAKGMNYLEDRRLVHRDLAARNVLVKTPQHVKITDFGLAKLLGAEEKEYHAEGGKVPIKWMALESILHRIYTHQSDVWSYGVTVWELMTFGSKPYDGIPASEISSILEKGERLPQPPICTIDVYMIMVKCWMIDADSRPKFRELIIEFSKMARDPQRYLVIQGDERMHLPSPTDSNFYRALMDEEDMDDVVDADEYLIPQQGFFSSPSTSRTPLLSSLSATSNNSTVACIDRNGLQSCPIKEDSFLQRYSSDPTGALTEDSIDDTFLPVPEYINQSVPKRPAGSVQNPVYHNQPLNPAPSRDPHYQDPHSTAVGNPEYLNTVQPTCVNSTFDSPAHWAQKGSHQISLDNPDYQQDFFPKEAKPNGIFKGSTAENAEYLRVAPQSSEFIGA

| Compound | IC50 [1] | IC50 [2] | IC50 [3] | IC50 [4] | IC50 [5] |
| --- | --- | --- | --- | --- | --- |
| C#Cc1cc(OC)nc2nc(Nc3ccc(N4CCN(C)CC4)cc3)ncc12 [Example 3, 5-ethynyl-7-methoxy-N-(4-(4-methylDiDerazin-1-yl)phenyl)vrido[2,3-d]pyrimidin-2-amine] | > 10000 nM | 100 to 1000 nM | 500 to 1000 nM | > 3000 nM | 1000 to 3000 nM |
| C#Cc1cc(OC)nc2nc(Nc3ccc(N4CCN(C)CC4)c(N(C)C)c3)ncc12 [Example 5, N^3-{5-ethynyl-7-methoxypyrido[2,3-d]pyrimidin-2-yl}-N^1,N^1-dimethyl-6-(4-methylpiperazin-1-yl)benzene-1,3-diamine] | > 10000 nM | 100 to 1000 nM | > 3000 nM | > 3000 nM | > 3000 nM |
| C#Cc1cc(OC)nc2nc(Nc3ccc(N4CCN(C)CC4)c(Nc4ccccc4)c3)ncc12 [Example 6, N^1-{5-ethynyl-7-methoxypyrido[2,3-d]pyrimidin-2-yl}-4-(4-methylpiperazin-1-yl)-N^3-phenylbenzene-1,3-diamine] | 1000 to 10000 nM | 20 to 100 nM | 1000 to 3000 nM | > 3000 nM | > 3000 nM |
| C#Cc1cc(OC)nc2nc(Nc3cccc(CN(C)C(C)=O)c3)ncc12 [Example 7, N-{[3-({5-ethynyl-7-methoxypyrido[2,3-d]pyrimidin-2-yl}amino)pheny]methyl}-N-methylacetamide] | > 10000 nM | 100 to 1000 nM | > 3000 nM | > 3000 nM | > 3000 nM |
| C#Cc1cc(OC)nc2nc(Nc3cccc(CN(C)C)c3)ncc12 [Example 9, N-{3-[(dimethylamino)methyl]phenyl}-5-ethynyl-7-methoxypyrido[2,3-d] pyrimidin-2-amine] | > 10000 nM | 100 to 1000 nM | > 3000 nM | > 3000 nM | > 3000 nM |
| C#Cc1cc(Oc2ccccc2)nc2nc(Nc3ccc(N4CCN(C)CC4)cc3)ncc12 [Example 12, 5-ethynyl-N-[4-(4-methylpiperazin-1-yl)phenyl]-7-phenoxypyrido[2,3-d]pyrimidin-2-amine] | > 10000 nM | 100 to 1000 nM | > 3000 nM | > 3000 nM | > 3000 nM |
| C#Cc1cc(OCc2cscn2)nc2nc(Nc3ccc(N4CCN(C)CC4)cc3)ncc12 [Example 13, 5-ethynyl-N-[4-(4-methylpiperazin-1-yl)phenyl]-7-(1,3-thiazol-4-ylmethoxy)pyrido[2,3-d]pyrimidin-2-amine] | > 10000 nM | 20 to 100 nM | 1000 to 3000 nM | > 3000 nM | > 3000 nM |
| C#Cc1cc(OC2CCCCC2)nc2nc(Nc3ccc(N4CCN(C)CC4)cc3)ncc12 [Example 14, 7-(cyclohexyloxy)-5-ethynyl-N-(4-(4-methylpiperazin-1-yl)phenyl)pyrido[2,3-d]pyrimidin-2-amine] | > 10000 nM | 100 to 1000 nM | > 3000 nM | > 3000 nM | > 3000 nM |
| C#Cc1cc(OC(C)C)nc2nc(Nc3ccc(N4CCN(C)CC4)cc3)ncc12 [Example 17, 5-ethynyl-7-isopropoxy-N-[4-(4-methylpiperazin-1-yl)phenyl]pyrido[2,3-d]pyrimidin-2-amine] | > 10000 nM | 100 to 1000 nM | 1000 to 3000 nM | > 3000 nM | 1000 to 3000 nM |
| C#Cc1cc(NC(=O)NC2CCCC2)nc2nc(Nc3cccc(N(C)[C@H]4CC[C@H](CS(C)(=O)=O)CC4)c3)ncc12 [Example 121] | < 1000 nM | 20 to 100 nM | 500 to 1000 nM | – | < 500 nM |

Results, then the compound that gave them:

| IC50 [1] | IC50 [2] | IC50 [3] | IC50 [4] | IC50 [5] | Compound |
| --- | --- | --- | --- | --- | --- |
| > 10000 nM | 100 to 1000 nM | – | – | – | C#Cc1ccnc2nc(Nc3ccccc3OC)ncc12 [Example 1, 5-ethynyl-N-(2-methoxyphenyl)pyrido[2,3-d]pyrimidin-2-amine] |
| > 10000 nM | 100 to 1000 nM | 1000 to 3000 nM | > 3000 nM | > 3000 nM | C#Cc1cc(OC)nc2nc(Nc3ccc(N(C)CCN(C)C)cc3)ncc12 [Example 2, N^1-(2-(dimethylamino)ethyl)-N^4-(5-ethynyl-7-methoxypyrido[2,3-d]pyrimidin-2-yl)-N^1-methylbenzene-1,4-diamine] |
| > 10000 nM | 100 to 1000 nM | > 3000 nM | > 3000 nM | > 3000 nM | C#Cc1cc(OC)nc2nc(Nc3cccc(CN(C)C4CCC4)c3)ncc12 [Example 4, N-(3-{[cyclobutyl(methyl)amino]methyl}phenyl)-5-ethynyl-7-methoxypyrido[2,3-d]pyrimidin-2-amine] |
| 1000 to 10000 nM | 20 to 100 nM | 1000 to 3000 nM | > 3000 nM | > 3000 nM | C#Cc1cc(OC)nc2nc(Nc3ccc(N4CCN(C)CC4)c(NC4CCC4)c3)ncc12 [Example 8, N^3-cyclobutyl-N^1-{5-ethynyl-7-methoxypyrido[2,3-d]pyrimidin-2-yl}-4-(4-methylpiperazin-1-yl)benzene-1,3-diamine] |
| 1000 to 10000 nM | 20 to 100 nM | > 3000 nM | > 3000 nM | > 3000 nM | C#Cc1cc(OC)nc2nc(Nc3ccc(N4CCN(C)CC4)c(NCC4CCC4)c3)ncc12 [Example 10, N^3-(cyclobutylmethyl)-N^1-{5-ethynyl-7-methoxypyrido[2,3-d]pyrimidin-2-yl}-4-(4-methylpiperazin-1-yl)benzene-1,3-diamine] |
| > 10000 nM | 100 to 1000 nM | > 3000 nM | > 3000 nM | > 3000 nM | C#Cc1cc(OC)nc2nc(Nc3ccc(N4CCN(C)CC4)c(NCc4ccn(C)n4)c3)ncc12 [Example 11, N^1-{5-ethynyl-7-methoxypyrido[2,3-d]pyrimidin-2-yl}-4-(4-methylpiperazin-1-yl)-N^3-[(1-methylpyrazol-3-yl)methyl]benzene-1,3-diamine] |
| > 10000 nM | 100 to 1000 nM | 1000 to 3000 nM | > 3000 nM | > 3000 nM | C#Cc1cc(OC2CC2)nc2nc(Nc3ccc(N4CCN(C)CC4)cc3)ncc12 [Example 16, 7-cyclopropoxy-5-ethynyl-N-[4-(4-methylpiperazin-1-yl)phenyl]pyrido[2,3-d]pyrimidin-2-amine] |
| < 1000 nM | 20 to 100 nM | < 500 nM | – | < 500 nM | C#Cc1cc(NC(=O)NC2CCCC2)nc2nc(Nc3cccc(N(C)[C@H]4C[C@@H](CS(C)(=O)=O)C4)c3)ncc12 [Example 119] |
| < 1000 nM | 20 to 100 nM | < 500 nM | – | < 500 nM | C#Cc1cc(NC(=O)NC2CCCC2)nc2nc(Nc3cccc(N(C)[C@H]4CC[C@@H](CS(C)(=O)=O)CC4)c3)ncc12 [Example 120] |
